The text below walks through data of ChEMBL document CHEMBL1131484, “Human growth hormone-releasing hormone hGHRH(1-29)-NH2: systematic structure-activity relationship studies” (J Med Chem, 1998).

SMILES strings stand for the structures. Values joined by “and” are separate entries in the source; they are usually repeats but may differ in a detail not shown here. Identical values can stand only once.

This experiment addresses T1, Growth hormone-releasing hormone receptor (Rattus norvegicus) (UniProt Q02644).
T1 sequence (whole entry): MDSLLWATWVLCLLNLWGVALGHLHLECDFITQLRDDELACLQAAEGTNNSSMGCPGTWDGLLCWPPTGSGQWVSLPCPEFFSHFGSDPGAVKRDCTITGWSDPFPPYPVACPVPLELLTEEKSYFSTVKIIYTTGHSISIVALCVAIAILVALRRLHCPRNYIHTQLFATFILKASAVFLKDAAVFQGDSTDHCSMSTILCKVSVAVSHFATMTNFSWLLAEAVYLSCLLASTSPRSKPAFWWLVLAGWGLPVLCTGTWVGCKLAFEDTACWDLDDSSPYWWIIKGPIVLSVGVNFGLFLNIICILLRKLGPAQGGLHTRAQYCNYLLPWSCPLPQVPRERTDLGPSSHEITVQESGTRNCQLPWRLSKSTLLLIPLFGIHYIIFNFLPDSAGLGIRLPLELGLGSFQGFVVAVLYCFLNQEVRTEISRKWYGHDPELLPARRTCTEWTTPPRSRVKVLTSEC
The experiment in a line: Potency for growth hormone releasing hormone receptor (GHRFR) relative to human GHRH(1-40)OH- in the rat pituitary cell culture assay. The format is functional, cell-based. Conditions: Pituitary gland cell.
`CCCC[C@H](NC(=O)[C@@H](NC(=O)[C@H](CC(=O)O)NC(=O)[C@H](CCC(N)=O)NC(=O)[C@H](CC(C)C)NC(=O)[C@H](CC(C)C)NC(=O)[C@H](CCCCN)NC(=O)[C@H](CCCN=C(N)N)NC(=O)[C@H](C)NC(=O)[C@H](CO)NC(=O)[C@H](CC(C)C)NC(=O)[C@H](CCC(N)=O)NC(=O)CNC(=O)[C@H](CC(C)C)NC(=O)[C@@H](NC(=O)[C@H](CCCCN)NC(=O)[C@H](CCCN=C(N)N)NC(=O)[C@H](Cc1ccc(O)cc1)NC(=O)[C@H](CO)NC(=O)[C@H](CC(N)=O)NC(=O)[C@@H](NC(=O)[C@H](Cc1ccccc1)NC(=O)[C@@H](NC(=O)[C@H](C)NC(=O)[C@H](CC(=O)O)NC(=O)[C@H](C)NC(=O)[C@@H](N)Cc1ccc(O)cc1)[C@@H](C)CC)[C@@H](C)O)C(C)C)[C@@H](C)CC)C(=O)N[C@@H](CO)C(=O)N[C@@H](CCCN=C(N)N)C(N)=O`: the Relative potency stood at 2.38.
To `CCCC[C@H]1NC(=O)[C@H]([C@@H](C)CC)NC(=O)[C@@H](NC(=O)[C@H](Cc2c[nH]cn2)NC(=O)[C@H](CC(C)C)NC(=O)[C@H](CC(C)C)NC(=O)[C@H](CCCCN)NC(=O)[C@H](CCCN=C(N)N)NC(=O)[C@H](Cc2ccccc2)NC(=O)[C@@H](NC(=O)[C@H](CC(C)C)NC(=O)[C@H](CCC(N)=O)NC(=O)[C@H](C)NC(=O)[C@H](CC(C)C)NC(=O)[C@@H](NC(=O)[C@H](CCCN=C(N)N)NC(=O)[C@H](CCCN=C(N)N)NC(=O)[C@H](Cc2ccc(O)cc2)NC(=O)[C@H](CO)NC(=O)[C@H](CO)NC(=O)[C@@H](NC(=O)[C@H](Cc2ccccc2)NC(=O)[C@@H](NC(=O)[C@H](C)NC(=O)[C@H](CC(=O)O)NC(=O)[C@H](C)NC(=O)[C@@](C)(N)Cc2c[nH]cn2)[C@@H](C)CC)[C@@H](C)O)[C@@H](C)CC)[C@@H](C)CC)CSSC[C@H](C(N)=O)NC(=O)[C@H](CC(N)=O)NC1=O` belongs 1.1; to `CCCC[C@H]1NC(=O)[C@H]([C@@H](C)CC)NC(=O)[C@H](NC(=O)[C@H](Cc2c[nH]cn2)NC(=O)[C@H](CC(C)C)NC(=O)[C@H](CC(C)C)NC(=O)[C@H](CCCCN)NC(=O)[C@H](CCCN=C(N)N)NC(=O)[C@H](Cc2ccccc2)NC(=O)[C@@H](NC(=O)[C@H](CC(C)C)NC(=O)[C@H](CCC(N)=O)NC(=O)[C@H](C)NC(=O)[C@H](CC(C)C)NC(=O)[C@@H](NC(=O)[C@H](CCCN=C(N)N)NC(=O)[C@H](CCCN=C(N)N)NC(=O)[C@H](Cc2ccc(O)cc2)NC(=O)[C@H](CO)NC(=O)[C@H](CO)NC(=O)[C@@H](NC(=O)[C@H](Cc2ccccc2)NC(=O)[C@@H](NC(=O)[C@H](C)NC(=O)[C@H](CC(=O)O)NC(=O)[C@H](C)NC(=O)[C@@](C)(N)Cc2c[nH]cn2)[C@@H](C)CC)[C@@H](C)O)[C@@H](C)CC)[C@@H](C)CC)CSSC[C@@H](C(N)=O)NC(=O)[C@H](CC(N)=O)NC1=O`, 1.9 and 4.4.
To `CCCC[C@H]1NC(=O)[C@H]([C@@H](C)CC)NC(=O)[C@H](NC(=O)[C@H](Cc2c[nH]cn2)NC(=O)[C@H](CC(C)C)NC(=O)[C@H](CC(C)C)NC(=O)[C@H](CCCCN)NC(=O)[C@H](CCCN=C(N)N)NC(=O)[C@H](Cc2ccccc2)NC(=O)[C@@H](NC(=O)[C@H](CC(C)C)NC(=O)[C@H](CCC(N)=O)NC(=O)[C@H](C)NC(=O)[C@H](CC(C)C)NC(=O)[C@@H](NC(=O)[C@H](CCCN=C(N)N)NC(=O)[C@H](CCCN=C(N)N)NC(=O)[C@H](Cc2ccc(O)cc2)NC(=O)[C@H](CO)NC(=O)[C@H](CO)NC(=O)[C@@H](NC(=O)[C@H](Cc2ccccc2)NC(=O)[C@@H](NC(=O)[C@H](C)NC(=O)[C@H](CC(=O)O)NC(=O)[C@H](C)NC(=O)[C@@](C)(N)Cc2c[nH]cn2)[C@@H](C)CC)[C@@H](C)O)[C@@H](C)CC)[C@@H](C)CC)CSSC[C@H](C(N)=O)NC(=O)[C@H](CC(N)=O)NC1=O` belongs 1.5.
To `CC[C@@H](C)[C@@H](NC(=O)[C@@H](C)NC(=O)[C@@H](CC(=O)O)NC(=O)[C@@H](C)NC(=O)[C@H](N)Cc1ccc(O)cc1)C(=O)N[C@H](Cc1ccccc1)C(=O)N[C@@H](C(=O)N[C@H](CC(N)=O)C(=O)N[C@H](CO)C(=O)N[C@H]1CCC(=O)NCCCC[C@H](C(=O)N[C@@H](CC(C)C)C(=O)NCC(=O)N[C@H](CCC(N)=O)C(=O)N[C@H](CC(C)C)C(=O)N[C@H](CO)C(=O)N[C@H](C)C(=O)N[C@H](CCCN=C(N)N)C(=O)N[C@H](CCCCN)C(=O)N[C@H](CC(C)C)C(=O)N[C@H](CC(C)C)C(=O)N[C@H](CCC(N)=O)C(=O)N[C@H](CC(=O)O)C(=O)N[C@@H](C(=O)N[C@H](CCSC)C(=O)N[C@H](CO)C(=O)N[C@H](CCCN=C(N)N)C(N)=O)[C@H](C)CC)NC(=O)[C@@H](CCCCN)NC(=O)[C@H](CCCN=C(N)N)NC1=O)[C@H](C)O` belongs 0.088; to `CC[C@H](C)[C@H](NC(=O)[C@H](C)NC(=O)[C@H](CC(=O)O)NC(=O)[C@H](C)NC(=O)[C@@H](N)Cc1ccc(O)cc1)C(=O)N[C@@H](Cc1ccccc1)C(=O)N[C@H](C(=O)N[C@@H](CC(N)=O)C(=O)N[C@@H](CO)C(=O)N[C@@H](Cc1ccc(O)cc1)C(=O)N[C@@H](CCCN=C(N)N)C(=O)N[C@@H](CCCCN)C(=O)N[C@H](C(=O)N[C@@H](CC(C)C)C(=O)NCC(=O)N[C@@H](CCC(N)=O)C(=O)N[C@@H](CC(C)C)C(=O)N[C@@H](CO)C(=O)N[C@@H](C)C(=O)N[C@H](CCCN=C(N)N)C(=O)N[C@H](CCCCN)C(=O)N[C@H](CC(C)C)C(=O)N[C@H](CC(C)C)C(=O)N[C@@H]1CCC(=O)NCCCC[C@@H](C(=O)N[C@@H](CO)C(=O)N[C@@H](CCCN=C(N)N)C(N)=O)NC(=O)[C@H]([C@@H](C)CC)NC(=O)[C@@H](CC(=O)O)NC1=O)C(C)C)[C@@H](C)O`, 1.3; to `CC[C@H](C)[C@H](NC(=O)[C@H](C)NC(=O)[C@H](CC(=O)O)NC(=O)[C@H](C)NC(=O)[C@@H](N)Cc1ccc(O)cc1)C(=O)N[C@@H](Cc1ccccc1)C(=O)N[C@H](C(=O)N[C@@H](CC(N)=O)C(=O)N[C@@H](CO)C(=O)N[C@@H](Cc1ccc(O)cc1)C(=O)N[C@@H](CCCN=C(N)N)C(=O)N[C@@H](CCCCN)C(=O)N[C@H](C(=O)N[C@@H](CC(C)C)C(=O)NCC(=O)N[C@@H](CCC(N)=O)C(=O)N[C@@H]1CCC(=O)NCCCC[C@@H](C(=O)N[C@H](CCCCN)C(=O)N[C@@H](CC(C)C)C(=O)N[C@@H](CC(C)C)C(=O)N[C@@H](CCC(N)=O)C(=O)N[C@@H](CC(=O)O)C(=O)N[C@H](C(=O)N[C@@H](CCSC)C(=O)N[C@@H](CO)C(=O)N[C@@H](CCCN=C(N)N)C(N)=O)[C@@H](C)CC)NC(=O)[C@H](C)NC(=O)[C@@H](CO)NC1=O)C(C)C)[C@@H](C)O`, 0.23.
For `CC[C@H](C)[C@H](NC(=O)[C@H](C)NC(=O)[C@H](CC(=O)O)NC(=O)[C@H](C)NC(=O)[C@@H](N)Cc1ccc(O)cc1)C(=O)N[C@@H](Cc1ccccc1)C(=O)N[C@H](C(=O)N[C@@H](CC(N)=O)C(=O)N[C@@H](CO)C(=O)N[C@@H](Cc1ccc(O)cc1)C(=O)N[C@@H](CCCN=C(N)N)C(=O)N[C@@H](CCCCN)C(=O)N[C@H](C(=O)N[C@@H](CC(C)C)C(=O)NCC(=O)N[C@H](CCC(N)=O)C(=O)N[C@H](CC(C)C)C(=O)N[C@H](CO)C(=O)N[C@H](C)C(=O)N[C@H](CCCN=C(N)N)C(=O)N[C@H](CCCCN)C(=O)N[C@@H]1CCC(=O)NCCCC[C@@H](C(=O)N[C@H](C(=O)N[C@@H](CCSC)C(=O)N[C@@H](CO)C(=O)N[C@@H](CCCN=C(N)N)C(N)=O)[C@@H](C)CC)NC(=O)[C@H](CCC(N)=O)NC(=O)[C@@H](CC(C)C)NC1=O)C(C)C)[C@@H](C)O`, the Relative potency was 5.3 and 8.8.
